Data from patent US20070066686A1, “Infusion preparation containing (2r)-2-propyloctanoic acid as at the active ingredient” (ONO PHARMACEUTICAL CO., LTD., priority 2003, published 2007).

Test system: dog
Assay: single intravenous administration toxicity using a dog
Type: in vivo
Details: dose of 100 mg/kg
Description: Toxicity of (2R)-2-propyloctanoic acid or a salt thereof is very low, and it is considered to be sufficiently safe for the use as a pharmaceutical drug.

CCCCCC[C@@H](CCC)C(=O)O [(2R)-2-propyloctanoic acid]
death after single intravenous administration: did not result in death
